# Data: patent publication US8575357B2, “Substituted (thiazolyl-carbonyl)imidazolidinones and use thereof” (AiCuris GmbH & Co. KG, priority 2009, dated 2013)
# Assays:
# [1] = test system: HIV-1NL4-3 reporter virus, reverse transcriptase mutations K103N-Y181C; assay: Light assay with inhibitor-resistant HI reporter virus in MT4 7F2 cells; format: cell-based; conditions: Human immunodeficiency virus 1, 120 h, read-out: EC50 (nM) MT4 7F2 cells HIV-1NL4-M3 K103N-Y181C 2% FCS
# Experimental: (§1) For the mixture for a 96-well MTP, 3 million MT4 7F2 cells are pelleted, suspended in 1 ml of RPMI 1640 medium without phenol red (Invitrogen, Karlsruhe, Germany)/10% FCS/10% AIM-V (Invitrogen, Karlsruhe, Germany) and incubated together with a suitable amount of the corresponding HIV-1NL4-3 reporter virus at 37° C. for 2 hours (pellet infection). Unadsorbed viruses are subsequently washed out with PBS, and the infected cells are pelleted again and suspended in 8 ml of RPMI 1640 medium without phenol red/2% or 10% FCS/10% AIM-V. 80 μl thereof are pipetted into each well of a white 96-well MTP with 20 μl of test substance in suitable dilution. To avoid edge effects, the wells on the edge of the MTP are not used for substance dilutions. The second vertical row of the MTP contains only infected cells (virus control) and the eleventh vertical row only uninfected cells (cell control), in each case in RPMI 1640 medium without phenol red/2% or 10% FCS/10% AIM-V. The other wells of the MTP contain the compounds of the invention in various concentrations starting from the third vertical row, from which the test substances are diluted in 3-fold steps up to the tenth vertical row 3^7-fold. The test substances are dissolved in DMSO, whereby the final DMSO concentration in the test mixture is 1%. The test mixtures are incubated at 37° C./5% CO2 for five days and, after the addition of 15 μl of Lu164 substrate (5 mg/ml coelenterazine dissolved in 30 μM glutathione/DMSO, 100 mM NaCl, 1M MES, 100 mM glutathione), evaluated by luminometry. The resulting values are in the region of 1 000 000 RLUs (relative light units) for the virus control and 300 to 400 RLUs for the cell control. The EC50 values of the test substances are determined as the concentration at which the virus replication measured in RLUs is 50% of the untreated infected cells.
# [2] = test system: HIV-1NL4-3 reporter virus, wild-type; assay: Light assay with wild-type HI reporter virus in MT4 7F2 cells; format: cell-based; conditions: Human immunodeficiency virus 1, 120 h, read-out: EC50 (nM) MT4 7F2 cells HIV-1NL4-M3 wt 2% FCS
# Experimental: as §1
# reverse transcriptase = molecular target: T1, reverse transcriptase (Human immunodeficiency virus type 1 group M subtype B, UniProt P04585); assay: Biochemical reverse transcriptase assay (Reverse Transcriptase Assay, colorimetric, Roche); conditions: colorimetric RT assay, final DMSO 1%; read-out: IC50 (nM) RT assay
# T1 construct: negative control (mixture without reverse transcriptase); purchased Roche Diagnostics GmbH, Mannheim, Germany
# Experimental: The “Reverse Transcriptase Assay, colorimetric” (Roche Diagnostics GmbH, Mannheim, Germany) is used in accordance with the manufacturer's information. The test substances are dissolved in DMSO and are used in the test diluted in 5-fold steps (final DMSO concentration 1%). The resulting values of the photometric evaluation (405/492 nm) are less than 0.1 for the negative control (mixture without reverse transcriptase) and are in the region of 1.5 for the positive control (mixture without test substance). The IC50 values of the test substances are determined as the concentration of the test substance dilution at which the measured optical density is 50% of the positive control.
# HIV-1LAI = assay: H9 assay with wild-type HIV-1 (HIV-1LAI supernatant infection, AlamarBlue); format: cell-based; conditions: Human immunodeficiency virus 1, 120 h, H9 cells, 10% FCS, 5 days
# Experimental: For the mixture for a 96-well MTP, 3 million PBLs are pelleted, suspended in 1 ml of RPMI 1640 medium/10% FCS and incubated together with a suitable amount of HIV-1LAI (NIH AIDS Research & Reference Reagent Program, Germantown, USA) at 37° C. for 2 hours (pellet infection). Unadsorbed viruses are subsequently washed out with PBS, and the infected cells are pelleted again and suspended in 18 ml of RPMI 1640 medium/10% FCS/interleukin-2 (40 U/ml). 180 μl thereof are pipetted into each well of a white 96-well MTP with 20 μl of test substance in suitable dilution. Alternatively, after preparation of the substance dilutions in the MTP, the HIV is pipetted in together with the cells and is not washed out again (supernatant infection). In order to avoid edge effects, the wells at the edge of the MTP are not used for substance dilutions. The second vertical row of the MTP contains only infected cells (virus control) and the eleventh vertical row only uninfected cells (cell control), in each case in RPMI 1640 medium/10% FCS/interleukin-2 (40 U/ml). The other wells of the MTP contain the compounds of the invention in various concentrations starting from the third vertical row, from which the test substances are diluted in 3-fold steps up to the tenth vertical row 3^7-fold. The test substances are dissolved in DMSO, whereby the final DMSO concentration in the test mixture is 1%. The test mixtures are incubated at 37° C./5% CO2. After 5 and 7 days, 50 μl of cell-free supernatant are removed from each well to determine the amount of p24 present by means of a p24 ELISA (HIV-1 p24^CA Antigen Capture Assay Kit, NCI-Frederick Cancer Research and Development Center, Frederick, USA). From the resulting values of the photometric evaluation (450/620 nm) the EC50 values of the test substances are determined as the concentration at which the amount of p24 is 50% of the untreated infected cells.
# Alternatively, H9 cells (ATCC, Wesel, Germany) are employed instead of PBLs for testing the test substances. H9 cells are incubated in RPMI 1640 medium with 2% or 10% FCS as a HIV-1LAI supernatant infection at 37° C./5% CO2, (20 μl of substance dilution and 80 μl of cells/virus per well) in accordance with the pattern described above for 5 days. Subsequently, 10 μl of AlamarBlue (Invitrogen, Karlsruhe, Germany) are added to each well, and the MTPs are incubated at 37° C. for 3 hours before the fluorimetric evaluation takes place (544/590 nm). The resulting values are about 40 000 for the untreated uninfected cells and about 7000 for the untreated infected cells. In the low concentration range, the EC50 values of the test substances are determined as the concentration at which the fluorescence is 50% of the untreated uninfected cells (in each case subtracting the values of the untreated infected cells). In addition, in the high concentration range, the CC50 values of the test substances are determined as the concentration at which the fluorescence is 50% of the untreated uninfected cells (in each case subtracting the values of the untreated infected cells).
Compound,EC50 [1] [nM],EC50 [2] [nM],IC50 (reverse transcriptase) [nM],EC50 (HIV-1LAI) [nM]
"O=C1CN(C(=O)c2nc(-c3ccc(F)c(Cl)c3)c(-c3cc(F)cc(Cl)c3)s2)CN1 [Example 1, 1-{[4-(3-Chloro-4-fluorophenyl)-5-(3-chloro-5-fluorophenyl)-1,3-thiazole-2-yl]carbonyl}imidazolidin-4-one]",55,2,61,14
"O=C1CN(C(=O)c2nc(-c3ccc(F)c(Cl)c3)c(-c3cccc(Cl)c3)s2)CN1 [Example 2, 1-{[4-(3-Chloro-4-fluorophenyl)-5-(3-chlorophenyl)-1,3-thiazole-2-yl]carbonyl}imidazolidin-4-one]",91,4,17,30
"O=C1CN(C(=O)c2nc(-c3cccc(Cl)c3)c(-c3ccc(F)c(Cl)c3)s2)CN1 [Example 4, 1-{[5-(3-Chloro-4-fluorophenyl)-4-(3-chlorophenyl)-1,3-thiazole-2-yl]carbonyl}imidazolidin-4-one]",143,10,–,80
"N#Cc1cc(-c2sc(C(=O)N3CNC(=O)C3)nc2-c2cccc(Cl)c2)ccc1F [Example 5, 5-{4-(3-Chlorophenyl)-2-[(4-oxoimidazolidin-1-yl)carbonyl]-1,3-thiazole-5-yl}-2-fluorobenzenecarbonitrile]",228,38,–,80
"O=C1CN(C(=O)c2nc(-c3cc(F)cc(Cl)c3)c(-c3cccc(Cl)c3)s2)CN1 [Example 6, 1-{[4-(3-Chloro-5-fluorophenyl)-5-(3-chlorophenyl)-1,3-thiazole-2-yl]carbonyl}imidazolidin-4-one]",282,58,–,95
"N#Cc1cccc(-c2sc(C(=O)N3CNC(=O)C3)nc2-c2cccc(Cl)c2)c1 [Example 7, 3-{4-(3-Chlorophenyl)-2-[(4-oxoimidazolidin-1-yl)carbonyl]-1,3-thiazole-5-yl}benzenecarbonitrile]",303,36,–,20
"O=C1CN(C(=O)c2nc(-c3cccc(Cl)c3)c(-c3cccc(C(F)(F)F)c3)s2)CN1 [Example 8, 1-({4-(3-Chlorophenyl)-5-[3-(trifluoromethyl)phenyl]-1,3-thiazole-2-yl}carbonyl)imidazolidin-4-one]",142,46,–,–
"N#Cc1cc(-c2sc(C(=O)N3CNC(=O)C3)nc2-c2ccc(F)c(Cl)c2)ccc1F [Example 9, 5-{4-(3-Chloro-4-fluorophenyl)-2-[(4-oxoimidazolidin-1-yl)carbonyl]-1,3-thiazole-5-yl}-2-fluorobenzenecarbonitrile]",118,35,–,40
N#Cc1cccc(-c2sc(C(=O)N3CNC(=O)C3)nc2-c2ccc(F)c(Cl)c2)c1 [Example 10],70,4,–,5
"N#Cc1cc(F)cc(-c2nc(C(=O)N3CNC(=O)C3)sc2-c2cc(F)cc(Cl)c2)c1 [Example 12, 3-{5-(3-Chloro-5-fluorophenyl)-2-[(4-oxoimidazolidin-1-yl)carbonyl]-1,3-thiazole-4-yl}fluorobenzenecarbonitrile]",119,29,–,80
"N#Cc1cc(-c2nc(C(=O)N3CNC(=O)C3)sc2-c2cc(F)cc(Cl)c2)ccc1F [Example 13, 5-{5-(3-Chloro-5-fluorophenyl)-2-[(4-oxoimidazolidin-1-yl)carbonyl]-1,3-thiazole-4-yl}-2-fluorobenzenecarbonitrile]",43,0.6,–,2
"N#Cc1cc(-c2nc(C(=O)N3CNC(=O)C3)sc2-c2cccc(Cl)c2)ccc1F [Example 14, 5-{5-(3-Chlorophenyl)-2-[(4-oxoimidazolidin-1-yl)carbonyl]-1,3-thiazole-4-yl}-2-fluorobenzenecarbonitrile]",49,1,–,4
"N#Cc1cc(F)cc(-c2sc(C(=O)N3CNC(=O)C3)nc2-c2ccc(F)c(C#N)c2)c1 [Example 15, 5-{5-(3-Cyano-5-fluorophenyl)-2-[(4-oxoimidazolidin-1-yl)carbonyl]-1,3-thiazole-4-yl}-2-fluorobenzenecarbonitrile]",87,9,–,2
"N#Cc1cccc(-c2sc(C(=O)N3CNC(=O)C3)nc2-c2ccc(F)c(C#N)c2)c1 [Example 16, 5-{5-(3-Cyanophenyl)-2-[(4-oxoimidazolidin-1-yl)carbonyl]-1,3-thiazole-4-yl}-2-fluorobenzenecarbonitrile]",123,15,–,2
N#Cc1cccc(-c2nc(C(=O)N3CNC(=O)C3)sc2-c2cccc(Cl)c2)c1 [Example 17],64,0.5,–,2
"N#Cc1cccc(-c2nc(C(=O)N3CNC(=O)C3)sc2-c2cc(F)cc(Cl)c2)c1 [Example 18, 3-{5-(3-Chloro-5-fluorophenyl)-2-[(4-oxoimidazolidin-1-yl)carbonyl]-1,3-thiazole-4-yl}benzenecarbonitrile]",38,0.4,–,1
"N#Cc1cccc(-c2nc(C(=O)N3CNC(=O)C3)sc2-c2cccc(C#N)c2)c1 [Example 19, 3,3′-{2-[(4-Oxoimidazolidin-1-yl)carbonyl]-1,3-thiazole-4,5-diyl}benzenecarbonitrile]",94,2,–,1
"N#Cc1cc(F)cc(-c2sc(C(=O)N3CNC(=O)C3)nc2-c2cccc(Cl)c2)c1 [Example 21, 3-{4-(3-Chlorophenyl)-2-[(4-oxoimidazolidin-1-yl)carbonyl]-1,3-thiazole-5-yl}-5-fluorobenzenecarbonitrile]",79,2,–,2
